US20190388441A1, “NOVEL PRODRUGS OF MIZORIBINE” (KATHOLIEKE UNIVERSITEIT LEUVEN, priority 2017, published 2019)
Where two headings read alike, the source gives them in different places.

How the values were obtained:
DBA-1 mice with CIA = experiment: chicken collagen type II induced rheumatoid arthritis (CIA) in DBA-1 mice; assay type: in vivo; settings: monotherapy at given doses, 30 day-treatment
From the text: Results of example 67 showing disease score in DBA-1 mice with CIA after a 30 day-treatment with the Mizoribine prodrug of example 19 alone and in combination with MMF or Mizoribine.
Example 67: Synergy of the Prodrug of Example 19 with MMF or Mizoribine in Treatment of DBA-1 Mice with Chicken Collagen Type II Induced Rheumatoid Arthritis (CIA)

Balb/c mice = experiment: subacute toxicity assay; assay type: in vivo; settings: Day 0-14, n = 6
Procedure: Reduction of Toxicity by Combination of Ex19 and MZR Subacute Toxicity Assay
Balb/c mice were treated with MZR at 100 mpk PO or Ex19 at equal molecule dose to MZR from day 0-14.

IL-2 production = experiment: suppression of IL-2 production in anti-CD3 antibody stimulated mice in vivo; parameters: species or system Balb/c mice; settings: Mus musculus; for inhibition at 65 mg/kg: 65 mpk PO; for inhibition at 40 mg/kg: 40 mpk PO; for inhibition at 55 mg/kg: 55 mpk PO; for inhibition at 50 mg/kg: 50 mpk PO; for inhibition at 25 mg/kg: 25 mpk PO
Procedure: Mizoribine prodrug-induced suppression of IL-2 production in anti-CD3 antibody stimulated mice in vivo.
Inbreed Balb/c mice, male, 8-10 week old, were pre-treated with Mycophenolate mofetil (MMF), Mizoribine and Mizoribine prodrugs at the different time intervals before anti-mouse CD3 antibody injection IP (1 μg per mouse). The doses of the prodrugs of examples 19, 40 and 48 were equal to Mizoribine on the bases of molecular weight. Four hours after anti-CD3 antibody stimulation, a volume of 100 μl peripheral blood was taken by eye puncture and serum IL-2 was quantified by FACS-beads technology. Briefly, an aliquot of 10 μl of serum was incubated with anti-mouse IL-2 antibody coated microbeads at 4° C. for 30 min. After washing twice with cold PBS, the beads were incubated with biotin-conjugated anti-mouse IL-2 antibody at 4° C. for 30 min. After washing twice with cold PBS, The beads were incubated with PE-conjugated avidin at 4° C. for 30 min. After washing twice with cold PBS, the samples were analyzed by flow cytometry. Results were expressed as mean of 2 mice in each group.

[1] = system: heart grafts from Balb/c donors in C57BL/6 recipient mice; experiment: heart allograft survival in mice (heterotopic heart transplantation); assay type: in vivo
Procedure: Synergy of Mizoribine Prodrugs with FK506 to Prolong Heart Allograft Survival in Mice
Heterotopic hear transplantation was performed by placing heart grafts from Balb/c donors to the neck of C57BL/6 recipient mice using micro-suture technology, in which the aorta and pulmonary artery of the graft were connected to carotid artery and jugular vein, respectively. The function of grafts was monitored by daily inspection and palpation. Rejection was determined by cessation of graft beating and confirmed by histology.

IMPDH (E. coli) = IMPDH (E. coli) (Escherichia coli, UniProt P0ADG7); settings: lower end of the range; cited from earlier work
Chain of IMPDH (E. coli) (P0ADG7 whole entry): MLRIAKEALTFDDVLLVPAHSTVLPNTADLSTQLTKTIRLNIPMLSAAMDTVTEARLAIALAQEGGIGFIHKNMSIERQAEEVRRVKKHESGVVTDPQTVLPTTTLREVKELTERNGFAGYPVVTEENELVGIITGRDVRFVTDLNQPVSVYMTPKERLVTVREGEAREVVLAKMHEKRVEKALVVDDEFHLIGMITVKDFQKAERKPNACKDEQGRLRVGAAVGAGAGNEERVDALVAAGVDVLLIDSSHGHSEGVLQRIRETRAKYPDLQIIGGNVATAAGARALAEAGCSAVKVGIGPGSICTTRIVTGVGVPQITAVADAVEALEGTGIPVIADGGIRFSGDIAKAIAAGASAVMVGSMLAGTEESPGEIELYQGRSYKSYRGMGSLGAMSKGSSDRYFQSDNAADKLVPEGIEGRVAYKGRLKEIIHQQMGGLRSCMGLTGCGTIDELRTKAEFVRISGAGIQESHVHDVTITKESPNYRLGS

hlMPDH1 = hlMPDH1 (Homo sapiens, UniProt P20839); settings: upper end of the range; cited from earlier work
Chain of hlMPDH1 (P20839 whole entry): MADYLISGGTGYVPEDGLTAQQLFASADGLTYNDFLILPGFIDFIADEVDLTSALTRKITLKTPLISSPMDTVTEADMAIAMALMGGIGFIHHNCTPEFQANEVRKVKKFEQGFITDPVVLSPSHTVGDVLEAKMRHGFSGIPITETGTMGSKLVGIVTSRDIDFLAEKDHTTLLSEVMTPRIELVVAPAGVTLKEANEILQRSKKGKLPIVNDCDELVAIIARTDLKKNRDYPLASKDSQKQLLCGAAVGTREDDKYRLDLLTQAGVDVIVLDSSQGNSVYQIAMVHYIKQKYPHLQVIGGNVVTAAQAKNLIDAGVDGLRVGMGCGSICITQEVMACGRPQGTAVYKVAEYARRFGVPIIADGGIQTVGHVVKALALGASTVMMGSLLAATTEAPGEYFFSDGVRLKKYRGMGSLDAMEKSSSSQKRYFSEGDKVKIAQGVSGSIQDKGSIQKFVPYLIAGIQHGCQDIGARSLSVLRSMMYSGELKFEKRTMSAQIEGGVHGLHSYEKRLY

[2] = given 1 hour before anti-CD3, mean of 2 mice, read-out: % inhibition of IL-2, 1 hour post administration
[3] = given 4 hours before anti-CD3, mean of 2 mice, read-out: % inhibition of IL-2, 4 hour post administration
[4] = given 8 hours before anti-CD3, mean of 2 mice, read-out: % inhibition of IL-2, 8 hour post administration
[5] = 1 to 8 hours post administration, read-out: inhibition of IL-2, range up to 8 hours post administration

Question: For `CC(C)CCOC(=O)C[C@H](NP(=O)(OC[C@H]1O[C@@H](n2cnc(C(N)=O)c2O)[C@H](O)C1O)Oc1ccccc1)C(=O)OCCC(C)C` (stereo partly drawn) [Ex 19, Mizoribine-5′-[phenyl-bis(isoamyl-L-aspartyl)]phosphate], which “suppression of disease score” value (DBA-1 mice with CIA) is on record?
Answer: didn't show notable suppression of disease score

Question: And the “n° sick animals” value (Balb/c mice; Ex19 260 mg/kg PO (equal molecule dose to MZR))?
Answer: 3

Question: And the “% sickness” value (Balb/c mice; Ex19 260 mg/kg PO)?
Answer: 50%

Question: What about the inhibition at 65 mg/kg (IL-2 production; [2]) of the same molecule?
Answer: 14.7%

Question: And the inhibition at 65 mg/kg (IL-2 production; [3])?
Answer: 18.3%

Question: What about the inhibition at 65 mg/kg (IL-2 production; [4]) of the same molecule?
Answer: 17.5%

Question: And the inhibition at 65 mg/kg (IL-2 production; [5])?
Answer: 14 to 18%

Question: Which “MST (median survival time) ± SD” value ([1]; 83 mpk PO, d 0 to d 14 post transplantation) does the source give for `CC(C)(C)C(=O)NC(=O)c1ncn([C@@H]2O[C@H](COC(=O)C(C)(C)C)C(O)[C@H]2O)c1O` (stereo partly drawn) [Ex 40, Mizoribine-5′-N-dipivalate] here?
Answer: 11 ± 0.6 days

Question: And the “MST (median survival time) ± SD” value ([1]; 83 mpk PO, d 0 to d 14 post transplantation, listed as Example 40)?
Answer: 11 ± 0.6 days

Question: And the “MST (median survival time) ± SD” value ([1]; 83 mpk PO, d 0 to d 14 post transplantation, listed as example 40)?
Answer: 11 ± 0.6 days

Question: What about the inhibition at 40 mg/kg (IL-2 production; [2]) of the same molecule?
Answer: 19.4%

Question: And the inhibition at 40 mg/kg (IL-2 production; [3])?
Answer: 64.4%

Question: And the inhibition at 40 mg/kg (IL-2 production; [4])?
Answer: 61.3%

Question: For `NC(=O)c1ncn(C2OC(COC(=O)[C@@H](N)CC(=O)OCc3ccccc3)C(O)C2O)c1O` (stereo partly drawn) [Ex 48, Mizoribine-5′-(4-benzyl ester-L-aspartyl) ester], which “MST (median survival time) ± SD” value ([1]; 112 mpk PO, d 0 to d 14 post transplantation) is on record?
Answer: 11 ± 1.0 days

Question: What about the “MST (median survival time) ± SD” value ([1]; 112 mpk PO, d 0 to d 14 post transplantation, listed as example 48) of the same molecule?
Answer: 11 ± 1.0 days

Question: And the inhibition at 55 mg/kg (IL-2 production; [2])?
Answer: 77%

Question: What about the inhibition at 55 mg/kg (IL-2 production; [3]) of the same molecule?
Answer: 32.7%

Question: And the inhibition at 55 mg/kg (IL-2 production; [4])?
Answer: 27.7%

Question: And the inhibition at 55 mg/kg (IL-2 production; [5])?
Answer: 27.7 to 77%

Question: For `C=CC[C@@H]1/C=C(\C)C[C@H](C)C[C@H](OC)[C@H]2O[C@@](O)(C(=O)C(=O)N3CCCC[C@H]3C(=O)O[C@H](/C(C)=C/[C@@H]3CC[C@@H](O)[C@H](OC)C3)[C@H](C)[C@@H](O)CC1=O)[C@H](C)C[C@@H]2OC` [FK506, tacrolimus], which “MST (median survival time) ± SD” value ([1]; FK506 4 mpk IM, d 0 to d 14 post transplantation, 4 mg/kg) is on record?
Answer: 8 ± 1.3 days

Question: What does the source list for `COc1c(C)c2c(c(O)c1C/C=C(\C)CCC(=O)OCCN1CCOCC1)C(=O)OC2` [MMF, Mycophenolate mofetil, reference compound]?
Answer: MST (median survival time) ± SD ([1]; MMF 100 mpk PO, d 0 to d 14): 11 ± 1.2 days; suppression of disease score (DBA-1 mice with CIA): didn't show notable suppression of disease score; inhibition at 50 mg/kg (IL-2 production; given 1 hour before anti-CD3, serum IL-2 4 h after stimulation, mean of 2 mice, read-out: % inhibition of IL-2, 1 hour post administration): 81.7%; inhibition at 50 mg/kg (IL-2 production; [3]): 52.3%; inhibition at 50 mg/kg (IL-2 production; [4]): 3.4%

Question: Which “MST (median survival time) ± SD” value ([1]; MZR 50 mpk PO, d 0 to d 14) does the source give for `NC(=O)c1ncn([C@@H]2O[C@H](CO)[C@@H](O)[C@H]2O)c1O` [Mizoribine] here?
Answer: 8 ± 1.2 days

Question: And the “MST (median survival time) ± SD” value ([1]; MZR 50 mpk PO, d 0 to d 14, listed as MZR)?
Answer: 8 ± 1.2 days

Question: What about the “suppression of disease score” value (DBA-1 mice with CIA) of the same molecule?
Answer: didn't show notable suppression of disease score

Question: What about the inhibition at 25 mg/kg (IL-2 production; [2]) of the same molecule?
Answer: 55.6%

Question: And the inhibition at 25 mg/kg (IL-2 production; [3])?
Answer: -8.6%

Question: And the inhibition at 25 mg/kg (IL-2 production; [4])?
Answer: -7.3%

Question: Which Ki (IMPDH (E. coli)) does the source give for `NC(=O)c1ncn([C@@H]2O[C@H](COP(=O)(O)O)[C@@H](O)[C@H]2O)c1O` [mizoribine-5′-monophosphate] here?
Answer: 0.5 nM

Question: What about the Ki (hlMPDH1) of the same molecule?
Answer: 8 nM
